Test: Inhibitory activity against lumazine synthase beta-60 capsids from Bacillus subtilis

Row | SMILES | Ki
1 | O=C(Nc1c(O)nc(O)nc1NC[C@H](O)[C@H](O)[C@H](O)CO)c1ccc(S(=O)(=O)F)cc1 | 200 µM
2 | O=C(Nc1c(O)nc(O)nc1NC[C@H](O)[C@H](O)[C@H](O)CO)c1ccc(S(=O)(=O)O)cc1 | 360 µM
3 | O=C(O)CCCC(=O)Nc1c(O)nc(O)nc1NC[C@H](O)[C@H](O)[C@H](O)CO | 430 µM
4 | O=c1[nH]c(=O)c2nnn(C[C@H](O)[C@H](O)[C@H](O)CO)c2[nH]1 | 330 µM
5 | O=P(O)(O)CCCCCCc1c(O)nc(O)nc1NC[C@H](O)[C@H](O)[C@H](O)CO | 109 µM
6 | O=c1[nH]c(=O)c2ncn(C[C@H](O)[C@H](O)[C@H](O)CO)c2[nH]1 | 470 µM

From ChEMBL document CHEMBL1131695, “Design and synthesis of 6-(6-D-ribitylamino-2,4-dihydroxypyrimidin-5-yl)-1-hexyl phosphonic acid, a potent inhibitor of lumazine synthase” (Bioorg Med Chem Lett, 1999)
